Results reported in patent US20070293542A1, “Selective Cox-2 Inhibitors” (priority 2003, published 2007).

Legend:
[1] = target: T1, ovine COX-1 (Ovis aries, UniProt P05979); test: COX-1 purified enzyme assay (Cayman Chemical kit, PGH2 production detected as PGF2α by EIA); format: biochemical; conditions: purified ovine COX-1; read-out: IC50 for inhibition of COX-1
T1 construct: purchased Cayman Chemical (Ann Arbor, Mich.)
T1 sequence (P05979 25-600): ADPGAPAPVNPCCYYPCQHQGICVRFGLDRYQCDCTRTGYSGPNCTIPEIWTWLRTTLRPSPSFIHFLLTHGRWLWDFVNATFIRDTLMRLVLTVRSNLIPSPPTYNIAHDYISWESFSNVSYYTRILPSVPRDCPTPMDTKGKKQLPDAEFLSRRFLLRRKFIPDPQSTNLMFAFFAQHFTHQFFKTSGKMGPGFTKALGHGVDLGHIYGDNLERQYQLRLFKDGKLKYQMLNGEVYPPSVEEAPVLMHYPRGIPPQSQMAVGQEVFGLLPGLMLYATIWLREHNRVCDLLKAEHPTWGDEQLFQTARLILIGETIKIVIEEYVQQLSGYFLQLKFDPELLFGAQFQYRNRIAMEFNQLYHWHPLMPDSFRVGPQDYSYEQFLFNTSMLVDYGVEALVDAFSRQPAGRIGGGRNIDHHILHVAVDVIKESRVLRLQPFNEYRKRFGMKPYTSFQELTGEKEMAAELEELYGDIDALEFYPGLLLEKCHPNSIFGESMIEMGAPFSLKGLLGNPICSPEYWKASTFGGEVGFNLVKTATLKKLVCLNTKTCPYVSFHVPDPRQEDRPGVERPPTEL
Excerpt: (§1) Because COX-1 and COX-2 convert arachidonic acid to prostaglandin H2 (PGH2), one can assess COX inhibitory activity of a test compound by measuring the effect of the compound on PGH2 production in the presence of purified COX-1 enzyme and, in a separate assay, in the presence of purified COX-2 enzyme. In this assay, the production of PGH2 can be measured by reducing PGH2 to prostaglandin F2α (PGF2α) with SnCl2 and then detecting PGF2α by enzyme immunoassay (EIA) using a suitable antibody.
Using the methods described above, the inhibition of human COX-2 and ovine COX-1 by desbenzoylindomethacin was measured.

[2] = target: T2, human COX-2 (Homo sapiens, UniProt P35354); test: COX-2 purified enzyme assay (Cayman Chemical kit, PGH2 production detected as PGF2α by EIA); format: biochemical; conditions: for COX-2 selectivity (IC50 for COX-1/IC50 for COX-2): ovine COX-1 vs human COX-2, purified enzymes; for IC50: purified human COX-2, read-out: IC50 for inhibition of COX-2
T2 construct: purchased Cayman Chemical (Ann Arbor, Mich.)
T2 sequence (P35354 18-604): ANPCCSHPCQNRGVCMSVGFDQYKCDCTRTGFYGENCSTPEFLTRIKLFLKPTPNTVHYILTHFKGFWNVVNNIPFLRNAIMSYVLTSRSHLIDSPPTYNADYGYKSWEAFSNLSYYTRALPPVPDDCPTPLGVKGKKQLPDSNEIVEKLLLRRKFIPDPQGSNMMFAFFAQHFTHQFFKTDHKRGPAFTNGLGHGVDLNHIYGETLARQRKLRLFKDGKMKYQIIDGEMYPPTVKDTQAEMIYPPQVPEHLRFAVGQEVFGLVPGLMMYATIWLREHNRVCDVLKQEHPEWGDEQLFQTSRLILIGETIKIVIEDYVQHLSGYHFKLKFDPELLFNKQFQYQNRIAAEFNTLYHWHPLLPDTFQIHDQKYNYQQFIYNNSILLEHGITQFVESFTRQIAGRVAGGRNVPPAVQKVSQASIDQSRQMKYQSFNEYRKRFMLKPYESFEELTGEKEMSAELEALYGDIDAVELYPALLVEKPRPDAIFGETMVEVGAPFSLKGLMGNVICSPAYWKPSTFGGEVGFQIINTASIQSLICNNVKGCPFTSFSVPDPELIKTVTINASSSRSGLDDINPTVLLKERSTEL
Excerpt: as §1, with “. Because” for “Because”
. Using the methods described above, the inhibition of human COX-2 and ovine COX-1 by desbenzoylindomethacin was measured. […]

[3] = system: prostaglandin synthesis; conditions: reported by Shen and Winter 1977; cited from earlier work

melting point [°C] | IC50 [1] [µM] | potency reduced relative to indomethacin ([2]; COX-1 and COX-2 purified enzyme assays) [fold] | COX-2 selectivity (IC50 for COX-1/IC50 for COX-2) [2] | IC50 [2] [µM] | SMILES | ability to inhibit prostaglandin synthesis [3]
186 to 188 |  |  |  |  | Cc1c(CC(=O)O)c2cc(O)ccc2n1C(=O)c1ccccc1 [compound 5, (1-benzoyl-5-hydroxy-2-methyl-1H-indol-3-yl)acetic acid] | 
159 to 161 |  |  |  |  | Cc1c(CC(=O)O)c2cc(O)c(F)cc2n1C(=O)c1ccccc1 [compound 12, (1-benzoyl-6-fluoro-5-hydroxy-2-methyl-1H-indol-3-yl)acetic acid] | 
 | 20 | ~100 | 1.6 | 12 | COc1ccc2[nH]c(C)c(CC(=O)O)c2c1 [desbenzoylindomethacin] | 
 | 15 |  | 50-150 | 0.1 to 0.3 | Cc1c(CC(=O)O)c2cc(O)ccc2n1C(=O)c1ccc(Cl)cc1 [desmethylindomethacin, 1-(p-Chlorobenzoyl)-5-hydroxy-2-methylindole-3-acetic acid] | some ability to inhibit prostaglandin synthesis
